Source: patent publication US20170020838A1, “TREATMENT FOR RESPIRATORY DISEASE” (MUCOKINETICA LIMITED, priority 2014, published 2017)

What was measured:
[1] = tested on: ciliary transport of pig airway mucus secretions on the ex vivo pig trachea; test: Ciliary transport of mucus secretions (tracheal mucus velocity) on ex vivo normal pig trachea; conditions: for time of maximum transport speed following initiation of treatment / first time point with increased ciliary transport compared to BSS controls: 0.1 mM UTP; for first time point with increased ciliary transport compared to BSS controls: applied 10 min in BSS: 10^−4 M amiloride, +50 mM-NaCl, 100 mosM-mannitol, 100 mosM-sodium gluconate, combinations with 10^−5M Rx; for onset and duration profile of increased ciliary transport of secretions: normal pig trachea, single 10 min treatment; for class of ciliary transport enhancer: three classes of ENaC regulating substances; for first time point where increased ciliary transport is observed (class summary): Classes 2 and 3, after application of the treatment
Protocol: The lumen of each trachea was cleaned by gentle irrigation with BSS. Tracheas were opened longitudinally with scissors along the posterior aspect and mounted with the posterior aspect upwards in a moist air-tight box. An aliquot of pig airway mucus approximately 3 mm diameter was placed on the mucosal surface close to the distal end of each trachea. Tracheal mucus velocity (TMV mm/min) was measured by recording the distance moved, towards the laryngeal end of the trachea, in a given time. At the start of the study three measurements of TMV were made for each trachea to establish a baseline rate for the trachea. Solutions were then pipetted onto the luminal mucosal surface of tracheas for 10 min; BSS control tracheas (open circles; n=6); 10^−4 M amiloride in BSS (closed squares; n=6). Excess solution was then tipped off the mucosal surface and measurement of TMV repeated. TMV results at each time point are expressed as % of the baseline TMV, ciliary transport index (mean±SD).
(§1) Pig tracheas (from larynx to carina) from normal wild type animals were obtained from a local abattoir or Veterinary University. Transgenic CF piglets were produced as described by Klymiuk et al. 2012, and tracheas were obtained at a Veterinary University. The lumen of each trachea was cleaned by gentle irrigation with BSS. Tracheas were opened longitudinally with scissors along the posterior aspect and mounted with the posterior aspect upwards in a moist air-tight box. An aliquot of pig airway mucus approximately 3 mm diameter was placed on the mucosal surface close to the distal end of each trachea. Tracheal mucus velocity (TMV mm/min) was measured by recording the distance moved, towards the laryngeal end of the trachea, in a given time. At the start of a study three measurements of TMV were made for each trachea to establish a baseline rate for the trachea. Solutions were then pipetted onto the luminal mucosal surface of tracheas for 10 min. Then excess solution was tipped off the mucosal surface and measurement of TMV repeated. TMV results at each time point are expressed as % of the baseline TMV, ciliary transport index (mean±SD).

[2] = tested on: ciliary transport of pig airway mucus secretions on the ex vivo trachea of transgenic CF piglets; test: Ciliary transport of mucus secretions on ex vivo trachea of transgenic CF piglets; set-up: speed of ciliary transport at the first three time points (25, 40 and 55 min), day 1: dose or concentration left out as unconfirmed
Protocol: FIG. 13 Study of the effects of 6-amidino-2-napthyl 4-guanidinobenzoate in BSS, and a combination of hyperosmotic saline and 6-amidino-2-napthyl 4-guanidinobenzoate in BSS on ciliary transport of pig airway mucus secretions on the ex vivo trachea of transgenic CF piglets. Transgenic CF piglets were produced as described by Klymiuk et al. 2012, and tracheas obtained at a Veterinary University. Study methods were otherwise as described in FIG. 10. Ciliary transport index (mean) was measured over two days with a second treatment period at the start of the second day.
as §1

kidney sodium channel = conditions: cortical collecting duct of the rabbit kidney; Muto et al. 1993; cited from earlier work
ENaC = conditions: human airway epithelial cells; Rasgado et al. 2009 & 2013; cited from earlier work

SMILES | difference from BSS control tracheas at 40 min, 55 min and 1 h 10 min ([1]; 10^−4 M amiloride) | duration of stimulation of ciliary transport ([1]; 10^−4 M amiloride) | time by which transport speed returned to control levels ([1]; 10^−4 M amiloride) [min] | stimulated ciliary transport through to (last time point) ([1]; 10^−4 M amiloride in BSS applied 10 min) [min] | time of maximum transport speed following initiation of treatment ([1]; 10^−4 M amiloride) [min] | onset of increased ciliary transport of secretions (class summary) ([1]; Class 1) | return to control transport rate (class summary) ([1]; Class 1) [min] | peak increase in the rate of ciliary transport (class summary) ([1]; Classes 1 to 3 of ciliary transport enhancers) [%] | first time point with increased ciliary transport compared to BSS controls [1] [min] | onset and duration profile of increased ciliary transport of secretions [1] | class of ciliary transport enhancer [1] | first time point where increased ciliary transport is observed (class summary) [1] [min] | ciliary transport speed at the first two time points (25 and 40 min) compared to BSS controls ([1]; 10^−5M in BSS) | ciliary transport at 24 h following exposure to the treatment (class summary) ([1]; Class 3) | dose of maximum increase in ciliary transport ([1]; at 3 h 40 min, tested 10^−9 M to 10^−5 M) | speed of ciliary transport at the first three time points (25, 40 and 55 min), day 1 ([2]; in BSS, 10 min) | speed of ciliary transport at the first time point (25 min), day 2 ([2]; second 10 min treatment with 10^−5 M at 14 h 10 min) | onset and duration profile of increased ciliary transport, both days ([2]; transgenic CF pig tracheas) | action on the kidney sodium channel (kidney sodium channel) | effect of hyperosmotic concentrations on ENaC activity (ENaC)
N=C(N)NC(=O)c1nc(Cl)c(N)nc1N [amiloride] | no significant difference | less than 1 h | ≤ 40 | 35 | 25 | immediate | ≤ 40 | 30 | 10 | rapid onset and of short duration | Rapid onset—short duration | – | – | – | – | – | – | – | – | –
O=C([O-])[C@H](O)[C@@H](O)[C@H](O)[C@H](O)CO.[Na+] [hyperosmotic sodium gluconate, sodium gluconate] | – | – | – | – | – | – | – | – | 25 | medium-onset medium duration | Medium onset—medium duration | 25 | – | – | – | – | – | – | – | –
N=C(N)Nc1ccc(C(=O)Oc2ccc3cc(C(=N)N)ccc3c2)cc1 [6-amidino-2-napthyl 4-guanidinobenzoate] | – | – | – | – | – | – | – | – | – | slow-onset long duration | Slow onset—long duration | 55 | no increase in speed | continues to exceed control transport rate | 10^−6 M | no increase in speed | No increase in speed | slow-onset long duration | weak, short acting inhibitor | –
O=c1ccn([C@@H]2O[C@H](COP(=O)(O)OP(=O)(O)OP(=O)(O)O)[C@@H](O)[C@H]2O)c(=O)[nH]1 [UTP, uridine 5′-triphosphate] | – | – | – | – | 55 | – | – | – | 25 | medium-onset medium duration | Medium onset—medium duration | 25 | – | – | – | – | – | – | – | –
OC[C@@H](O)[C@@H](O)[C@H](O)[C@H](O)CO [hyperosmotic mannitol, mannitol] | – | – | – | – | – | – | – | – | 25 | medium-onset medium duration | Medium onset—medium duration | 25 | – | – | – | – | – | – | – | reduced ENaC activity
